Values quoted from earlier work, collected in patent US20140088058A1 (PARTHENOGEN SAGL, priority 2011, published 2014).

Tests used:
[1] = system: FSH and LH plasma concentration
[2] = system: gonadotrophin surge, oocytes collected; settings: 40 mg oral route since early days of FSH administration

NC(=O)c1ccc[n+]([C@@H]2O[C@H](COP(=O)([O-])OP(=O)(O)OC[C@H]3O[C@@H](n4cnc5c(N)ncnc54)[C@H](O)[C@@H]3O)[C@@H](O)[C@H]2O)c1 [NAD+]
effect following rat brain ischemia (infarct formation; given by injection): ineffective
reduction of infarct formation (infarct formation; nasal route, rat brain ischemia): 90%

CC#C[C@]1(O)CC[C@H]2[C@@H]3CCC4=CC(=O)CCC4=C3[C@@H](c3ccc(N(C)C)cc3)C[C@@]21C [mifepristone, 17β-hydroxyl-11β-(4-dimethyl-aminophenyl-1)-17α-(prop-1-ynyl)-estra-4,9-diene-3-one]
circulating levels of FSH and LH (LH surge; 1 mg per os for 5 days, from dominant follicle 14-16 mm): remained flat
LH surge timing versus placebo (LH surge; 1 mg per os for 5 days, placebo surge within 1 to 3 days): delayed in all treated women
solubility in dimethyl sulfoxide (DMSO) (DMSO): more than 20 mg/ml
solubility in ethanol (ethanol): more than 20 mg/ml
effect on FSH and LH plasma concentration ([1]; 10 or 100 mg per os): reduction
gonadotrophin surge [2]: did not have a gonadotrophin surge

CC(=O)[C@H]1CC[C@H]2[C@@H]3CCC4=CC(=O)CC[C@]4(C)[C@H]3CC[C@]12C [progesterone]
women with gonadotrophin surge within one day from first progesterone injection (LH surge; after mifepristone 1 mg per os, progesterone i.m. 2.5 mg bid day 1, 5 mg bid day 2): 5 out of 6
effect on plasma FSH and LH concentration ([1]; 10 mg i.m. in mid- or late-follicular phase): acute increase
